In US11130756B2, “[1,2,4]Triazolo[4,3-A]pyridinyl substituted indole compounds” (BRISTOL-MYERS SQUIBB COMPANY, priority 2017, dated 2021) one finds IC50 data, which are given here for twelve compounds.

Each structure is given as a SMILES string. Bounds are passed on as bounds.

Common to all, as to assay type: cell-based
Assay [1] addresses T1, human TLR8 (Homo sapiens, UniProt Q9NR97).
T1 construct: host or cells: HEK-Blue cells
T1 sequence (Q9NR97 27-1041): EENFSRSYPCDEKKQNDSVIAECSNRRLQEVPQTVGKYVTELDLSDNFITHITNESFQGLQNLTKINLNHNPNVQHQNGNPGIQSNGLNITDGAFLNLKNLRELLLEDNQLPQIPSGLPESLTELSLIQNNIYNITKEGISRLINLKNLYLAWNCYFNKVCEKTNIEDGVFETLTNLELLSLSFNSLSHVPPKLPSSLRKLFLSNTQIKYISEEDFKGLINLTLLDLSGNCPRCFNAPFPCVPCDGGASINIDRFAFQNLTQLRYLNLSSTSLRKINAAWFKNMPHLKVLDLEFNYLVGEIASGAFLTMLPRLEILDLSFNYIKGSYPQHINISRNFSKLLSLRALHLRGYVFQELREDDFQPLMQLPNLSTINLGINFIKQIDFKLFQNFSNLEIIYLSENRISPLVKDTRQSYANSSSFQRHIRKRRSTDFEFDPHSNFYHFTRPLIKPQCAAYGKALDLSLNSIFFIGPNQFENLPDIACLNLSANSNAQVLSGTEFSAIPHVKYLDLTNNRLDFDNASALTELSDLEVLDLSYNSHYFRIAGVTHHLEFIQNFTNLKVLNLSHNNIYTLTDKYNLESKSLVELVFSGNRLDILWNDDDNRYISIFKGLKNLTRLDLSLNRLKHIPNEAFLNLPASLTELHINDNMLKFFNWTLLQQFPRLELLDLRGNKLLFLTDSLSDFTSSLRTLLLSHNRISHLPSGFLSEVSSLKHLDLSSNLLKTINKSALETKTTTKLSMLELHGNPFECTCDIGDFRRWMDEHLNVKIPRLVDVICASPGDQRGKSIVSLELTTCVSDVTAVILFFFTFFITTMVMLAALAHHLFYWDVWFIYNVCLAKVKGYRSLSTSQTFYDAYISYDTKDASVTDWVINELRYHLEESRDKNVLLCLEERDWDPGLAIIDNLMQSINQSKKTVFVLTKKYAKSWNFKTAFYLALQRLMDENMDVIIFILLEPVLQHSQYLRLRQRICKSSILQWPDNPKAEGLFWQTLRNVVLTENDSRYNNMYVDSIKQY
Kind of assay: TLR8 inhibition reporter assay (HEK-Blue, SEAP). Conditions: HEK-Blue cells overexpressing human TLR8, R848 15.9 μM, 22 hour incubation. Summed up: (§1)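 Compound treatment: 30 min, RT, 0.05 nM–50 μM final. Agonist: TLR7 gardiquimod 7.5 μM; TLR8 R848 15.9 μM; TLR9 ODN2006 5 nM. Incubation 22 h, 37 °C, 5% CO2. Readout SEAP, HEK-Blue Detection.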
(A reporter such as luciferase makes a cellular process visible.)

Assay [2] addresses T2, human TLR7 (Homo sapiens, UniProt Q9NYK1).
T2 construct: host or cells: HEK-Blue cells
T2 sequence (Q9NYK1 27-1049): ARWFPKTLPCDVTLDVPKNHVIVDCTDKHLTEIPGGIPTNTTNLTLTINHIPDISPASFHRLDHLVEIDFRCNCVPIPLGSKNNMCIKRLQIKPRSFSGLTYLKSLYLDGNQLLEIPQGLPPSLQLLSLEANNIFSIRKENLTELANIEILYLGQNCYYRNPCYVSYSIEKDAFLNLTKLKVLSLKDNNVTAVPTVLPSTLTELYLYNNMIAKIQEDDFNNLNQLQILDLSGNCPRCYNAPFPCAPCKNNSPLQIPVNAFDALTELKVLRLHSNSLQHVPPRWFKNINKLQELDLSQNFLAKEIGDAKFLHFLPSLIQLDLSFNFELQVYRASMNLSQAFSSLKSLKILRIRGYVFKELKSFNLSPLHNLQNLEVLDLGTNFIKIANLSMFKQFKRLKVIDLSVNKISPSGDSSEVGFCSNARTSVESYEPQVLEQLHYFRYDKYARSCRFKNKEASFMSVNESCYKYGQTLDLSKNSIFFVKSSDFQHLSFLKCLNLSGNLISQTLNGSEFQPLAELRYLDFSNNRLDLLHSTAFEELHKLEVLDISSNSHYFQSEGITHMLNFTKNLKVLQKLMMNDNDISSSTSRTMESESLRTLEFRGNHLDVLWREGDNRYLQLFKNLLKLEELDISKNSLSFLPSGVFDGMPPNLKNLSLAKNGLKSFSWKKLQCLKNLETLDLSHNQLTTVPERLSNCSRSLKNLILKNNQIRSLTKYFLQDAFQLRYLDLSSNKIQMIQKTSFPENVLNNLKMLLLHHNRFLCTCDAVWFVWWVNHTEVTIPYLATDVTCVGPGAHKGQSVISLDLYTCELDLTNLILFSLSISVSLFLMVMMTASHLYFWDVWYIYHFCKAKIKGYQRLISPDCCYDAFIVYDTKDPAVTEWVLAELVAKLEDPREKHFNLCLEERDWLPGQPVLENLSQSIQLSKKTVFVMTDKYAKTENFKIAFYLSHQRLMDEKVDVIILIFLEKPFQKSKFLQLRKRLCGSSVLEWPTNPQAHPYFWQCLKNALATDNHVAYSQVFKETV
Kind of assay: TLR7 inhibition reporter assay (HEK-Blue, SEAP). Conditions: HEK-Blue cells overexpressing human TLR7, gardiquimod 7.5 μM, 22 hour incubation. Summed up:
as §1

The target in assay [3] is T3, human TLR9 (Homo sapiens, UniProt Q9NR96).
T3 construct: host or cells: HEK-Blue cells
T3 sequence (Q9NR96 26-1032): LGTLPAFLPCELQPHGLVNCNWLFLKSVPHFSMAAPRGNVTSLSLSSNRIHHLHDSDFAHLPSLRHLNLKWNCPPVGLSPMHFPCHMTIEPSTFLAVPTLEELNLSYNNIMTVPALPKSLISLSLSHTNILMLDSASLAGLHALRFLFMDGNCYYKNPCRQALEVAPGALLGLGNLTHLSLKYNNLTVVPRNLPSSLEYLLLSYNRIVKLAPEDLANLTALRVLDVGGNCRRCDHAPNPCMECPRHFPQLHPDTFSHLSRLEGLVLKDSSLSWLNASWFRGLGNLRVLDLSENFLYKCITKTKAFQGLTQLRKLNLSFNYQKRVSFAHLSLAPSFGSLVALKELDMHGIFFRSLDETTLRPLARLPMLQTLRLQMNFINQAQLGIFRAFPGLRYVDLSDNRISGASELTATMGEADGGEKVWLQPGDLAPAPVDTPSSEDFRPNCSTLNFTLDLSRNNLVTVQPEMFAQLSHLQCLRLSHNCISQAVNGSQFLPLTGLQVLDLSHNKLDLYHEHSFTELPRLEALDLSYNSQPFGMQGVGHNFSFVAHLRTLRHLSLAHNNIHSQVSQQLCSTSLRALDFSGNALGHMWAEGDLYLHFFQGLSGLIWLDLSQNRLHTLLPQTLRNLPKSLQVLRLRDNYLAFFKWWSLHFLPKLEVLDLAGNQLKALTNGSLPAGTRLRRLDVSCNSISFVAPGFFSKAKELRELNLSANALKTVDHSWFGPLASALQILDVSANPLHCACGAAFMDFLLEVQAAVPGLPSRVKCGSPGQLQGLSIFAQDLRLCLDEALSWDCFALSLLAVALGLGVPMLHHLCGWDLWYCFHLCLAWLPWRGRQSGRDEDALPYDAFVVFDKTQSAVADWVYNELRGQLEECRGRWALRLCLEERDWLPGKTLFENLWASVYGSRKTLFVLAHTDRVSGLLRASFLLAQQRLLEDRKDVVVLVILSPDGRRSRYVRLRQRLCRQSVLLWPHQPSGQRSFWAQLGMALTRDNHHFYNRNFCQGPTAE
Kind of assay: TLR9 inhibition reporter assay (HEK-Blue, SEAP). Conditions: HEK-Blue cells overexpressing human TLR9, ODN2006 5 nM, 22 hour incubation. An outline of the steps:
as §1

For the compound `Cc1c(-c2[nH]c3ccc(C4CCN(CC5(C)COC5)CC4)cc3c2C(C)C)cn2cnnc2c1C` [Example 79, 6-(3-isopropyl-5-(1-((3-methyloxetan-3-yl)methyl)piperidin-4-yl)-1H-indol-2-yl)-7,8-dimethyl-[1,2,4]triazolo[4,3-a]pyridine], the IC50 in assay [1] came out at 2 nM; in assay [2], 1.1 nM; in assay [3], 3530 nM.
The corresponding values for `Cc1c(-c2[nH]c3ccc(C4CCN(CC5(C)COC5)CC4)cc3c2C(C)C)cn2cnnc2c1Cl` [Example 80, 8-chloro-6-(3-isopropyl-5-(1-((3-methyloxetan-3-yl)methyl)piperidin-4-yl)-1H-indol-2-yl)-7-methyl-[1,2,4]triazolo[4,3-a)pyridine] are 5.8 nM, 2.3 nM and 4550 nM.
In the same order, the values of `Cc1c(-c2[nH]c3ccc(C4CCN(C5CCOCC5)CC4)cc3c2C(C)C)cn2cnnc2c1Cl` [Example 81, 8-chloro-6-(3-isopropyl-5-(1-(tetrahydro-2H-pyran-4-yl)piperidin-4-yl)-1H-indol-2-yl)-7-methyl-[1,2,4]triazolo[4,3-a]pyridine] are 10.8 nM, 2.5 nM and 2260 nM.
With `Cc1c(-c2[nH]c3ccc(C4CCN(C5COC5)CC4)cc3c2C(C)C)cn2cnnc2c1Cl` [Example 82, 8-chloro-6-(3-isopropyl-5-(1-(oxetan-3-yl)piperidin-4-yl)-1H-indol-2-yl)-7-methyl-[1,2,4] triazolo[4,3-a]pyridine], the values for the IC50 in assay [1], in assay [2] and in assay [3] were 153 nM, 4.9 nM and at least 50000 nM, respectively.
In the same order, the values of `Cc1c(-c2[nH]c3ccc(C4CCN(Cc5cn(C)nn5)CC4)cc3c2C(C)C)cn2cnnc2c1C` [Example 83, 6-(3-isopropyl-5-(1-((1-methyl-1H-1,2,3-triazol-4-yl)methyl)piperidin-4-yl)-1H-indol-2-yl)-7,8-dimethyl-[1,2,4]triazolo[4,3-a]pyridine] are 7.2 nM, 3.4 nM and 875 nM.
Consider `Cc1c(-c2[nH]c3ccc(C4CCN(Cc5cn(C)nn5)CC4)cc3c2C(C)C)cn2cnnc2c1Cl` [Example 84, 8-chloro-6-(3-isopropyl-5-(1-((1-methyl-1H-1,2,3-triazol-4-yl)methyl)piperidin-4-yl)-1H-indol-2-yl)-7-methyl-[1,2,4]triazolo[4,3-a]pyridine], for which the IC50 in assay [1] was determined as 21.6 nM; in assay [2], 5.7 nM; in assay [3], 1110 nM.
In the same order, the values of `Cc1c(-c2[nH]c3ccc(C4CCN(C5CCOC(C)(C)C5)CC4)cc3c2C(C)C)cn2cnnc2c1C` (stereo not drawn) [Example 85, 6-(5-(1-(2,2-dimethyltetrahydro-2H-pyran-4-yl)piperidin-4-yl)-3-isopropyl-1H-indol-2-yl)-7,8-dimethyl-[1,2,4]triazolo[4,3-a]pyridine] are 6.7 nM, 2.5 nM and 1990 nM.
Take `COc1cc(-c2[nH]c3ccc(C4CCN(C5COC5)CC4)cc3c2C(C)C)cn2cnnc12` [Example 86, 6-(3-isopropyl-5-(1-(oxetan-3-yl)piperidin-4-yl)-1H-indol-2-yl)-8-methoxy-[1,2,4]triazolo[4,3-a]pyridine]: the IC50 is 26.8 nM in assay [1], 1.2 nM in assay [2] and 6200 nM in assay [3].
In the same order, the values of `Cc1c(-c2[nH]c3ccc(C4CCN(C5CC(C)OC(C)C5)CC4)cc3c2C(C)C)cn2cnnc2c1C` (stereo not drawn) [Example 87, 6-(5-(1-(2,6-dimethyltetrahydro-2H-pyran-4-yl)piperidin-4-yl)-3-isopropyl-1H-indol-2-yl)-7,8-dimethyl-[1,2,4]triazolo[4,3-a]pyridine] are 12.8 nM, 2.4 nM and 1300 nM.
In the same order, the values of `COc1cc(-c2[nH]c3ccc(C4CCN(C5CCOCC5)CC4)cc3c2C(C)C)cn2cnnc12` [Example 88, 6-(3-isopropyl-5-(1-(tetrahydro-2H-pyran-4-yl)piperidin-4-yl)-1H-indol-2-yl)-8-methoxy-[1,2,4]triazolo[4,3-a]pyridine] are 33.4 nM, 1.9 nM and 344 nM.
The corresponding values for `COc1ncc(CN2CCC(c3ccc4[nH]c(-c5cn6cnnc6c(C)c5C)c(C(C)C)c4c3)CC2)cn1` [Example 89, 6-(3-isopropyl-5-(1-((2-methoxypyrimidin-5-yl)methyl)piperidin-4-yl)-1H-indol-2-yl)-7,8-dimethyl-[1,2,4]triazolo[4,3-a]pyridine] are 3.3 nM, 0.1 nM and 773 nM.
With `COc1cc(-c2[nH]c3ccc(C4CCN(CC5(C)COC5)CC4)cc3c2C(C)C)cn2cnnc12` [Example 90, 6-(3-isopropyl-5-(1-((3-methyloxetan-3-yl)methyl)piperidin-4-yl)-1H-indol-2-yl)-8-methoxy-[1,2,4]triazolo[4,3-a]pyridine], the IC50 in assay [1] is 245 nM; in assay [2], 17.3 nM; in assay [3], 1500 nM.

As usually defined, the IC50 is the concentration needed to halve the response being measured.
